Source: patent US9625448B2, “Double caged GABA compounds, bis-CNB-GABA” (The Trustees of Princeton University, priority 2014, dated 2017)
Where “and” joins values, the source holds several entries; their conditions need not be identical. Equal values may be shown once. Read-outs that look alike come from different tables or passages of the source. Blank lines part the entries; values can stand above or below the molecule they belong to.

What was measured:
[1] = tested on: GABAA receptors; assay: Spontaneous IPSC / miniature GABA current amplitude, whole-cell patch recording from cerebellar molecular layer interneurons; assay type: cell-based
Description: Bis-CNB-GABA was applied in vitro. Currents were recorded from cerebellar interneurons. […] FIG. 35 (right) illustrates response traces before and after application of bis-CNB-GABA. FIG. 35 (left) illustrates summary of data. FIG. 36 illustrates effects of 1 mM bis-CNB-GABA on spontaneously evoked miniature glutamate and miniature GABA currents in cerebellar interneuron.
The biological properties of our synthetic bis-CNB-GABA were evaluated using whole-cell patch recording from cerebellar molecular layer interneurons.
FIGS. 43A-43E illustrate quantification of unwanted effects of caged GABA. Referring to FIGS. 43A-43E, first, changes in whole-cell holding current under voltage clamp were monitored while caged GABA compounds were applied by bath application or by local perfusion as per Civillico, E. F.; Shoham, S.; O'Connor, D. H.; Sarkisov, D. V.; Wang, S. S.-H. Cold Spring Harb. Protoc. 2012, which is incorporated herein by reference as if fully set forth). FIG. 43A illustrates voltage-clamp recordings from cerebellar interneurons exposed to caged GABA. Referring to this figure, upper trace corresponds to 1 mM bis-CNB-GABA; middle trace corresponds to 0.1 mM mono-O-CNB-GABA; bottom trace corresponds to 1 mM DPNI-GABA. Referring to FIG. 43A, (right) expanded traces illustrating the detailed effects on steady-state holding current and fluctuations in holding current were observed. FIG. 43B illustrates effects of caged GABA on spontaneous IPSCs and excitatory postsynaptic currents (EPSCs). Referring to FIG. 43B, IPSCs and EPSCs were identified and separated based on kinetic criteria. FIG. 43B (left) illustrates box plots of spontaneous postsynaptic current amplitudes in control conditions and in the presence of 1 mM bis-CNB-GABA. Referring to FIG. 43B (left), boxes show interquartile range and whiskers show full range of values. FIG. 43B (right) illustrates individual traces (gray) and average (block) of detected spontaneous IPSCs and EPSCs. FIG. 43C illustrates dependence of spontaneous IPSC amplitude on bis-CNB-GABA concentration. […] FIG. 43D illustrates comparison of effects of mono-O-CNB-GABA (0.1 mM) and bis-CNB-GABA (1.0 mM, except for 0.4 mM for IPSCs) on spontaneous IPSC amplitude, standard deviation of holding current (noise), and holding current (Ihold). FIG. 43E illustrates spontaneous EPSC size was unaffected by bis-CNB-GABA at all concentrations tested. Referring to FIGS. 43A and 43D, under these conditions, mono-O-CNB-GABA (0.1 mM) led to increases of 66±47 pA (mean±SD, n=6) in inward holding current at −60 mV (Ihold). This inward current presumably arises either via indirectly evoked increases in excitation or from direct activation of GABAA receptors (by residual free GABA in the caged compound solution or by mono-O-CNB-GABA, which may itself have partial agonist activity). See Dellal., S. S.; Luo, R.; Otis, T. S. J. Neurophysiol., 2012, 107, 2958-2970, which is incorporated herein by reference as if fully set forth.
Referring to FIG. 43B, the effects of bis-CNB-GABA on spontaneous IPSCs was next measured. […] Referring to FIG. 43B, in contrast, addition of bis-CNB-GABA served to reduce GABA current amplitudes by approximately one-third (FIG. 43B, top; 0.4 to 2.0 mM; ratio of amplitudes during drug/control: 0.68±0.17, n=14). […] This IC50 is, in fact, a lower bound; the material tested was crude product, which may contain minute amounts of mono-CNB-GABA.

[2] = tested on: cerebellar interneurons; assay: Whole-cell holding current under voltage clamp in cerebellar interneurons exposed to caged GABA; assay type: cell-based
Source text: FIGS. 43A-43E illustrate quantification of unwanted effects of caged GABA. Referring to FIGS. 43A-43E, first, changes in whole-cell holding current under voltage clamp were monitored while caged GABA compounds were applied by bath application or by local perfusion as per Civillico, E. F.; Shoham, S.; O'Connor, D. H.; Sarkisov, D. V.; Wang, S. S.-H. Cold Spring Harb. Protoc. 2012, which is incorporated herein by reference as if fully set forth). FIG. 43A illustrates voltage-clamp recordings from cerebellar interneurons exposed to caged GABA. Referring to this figure, upper trace corresponds to 1 mM bis-CNB-GABA; middle trace corresponds to 0.1 mM mono-O-CNB-GABA; bottom trace corresponds to 1 mM DPNI-GABA. Referring to FIG. 43A, (right) expanded traces illustrating the detailed effects on steady-state holding current and fluctuations in holding current were observed. FIG. 43B illustrates effects of caged GABA on spontaneous IPSCs and excitatory postsynaptic currents (EPSCs). Referring to FIG. 43B, IPSCs and EPSCs were identified and separated based on kinetic criteria. FIG. 43B (left) illustrates box plots of spontaneous postsynaptic current amplitudes in control conditions and in the presence of 1 mM bis-CNB-GABA. Referring to FIG. 43B (left), boxes show interquartile range and whiskers show full range of values. FIG. 43B (right) illustrates individual traces (gray) and average (block) of detected spontaneous IPSCs and EPSCs. FIG. 43C illustrates dependence of spontaneous IPSC amplitude on bis-CNB-GABA concentration. […]
Referring to FIG. 43D, in contrast, application of bis-CNB-GABA (raw product, 0.4 to 2.0 mM) evoked no detectable change in the holding current (ratio of holding current drug/control=1.0±0.3, n=14, p=0.7, Mann-Whitney test) or in its standard deviation, which is a measure of steady-state channel noise (from 3.0±0.5 to 3.2±0.8 pA, n=14, p=0.3) measured during periods of no spontaneous currents. […]

[3] = physchem; assay type: physicochemical; conditions: for rate of spontaneous photoproduct / GABA production: aqueous buffer, 23° C., 12 mM, pH 7.4, fluorescent room lights, first 8 days
Description: The hydrolytic stability of bis-CNB-GABA under normal handling conditions was examined. Accordingly, we prepared samples of bis-CNB-GABA and mono-O-CNB-GABA were prepared in aqueous buffer (23° C., 12 mM, pH=7.4), stored the samples under fluorescent room lights, and determined accumulation of deprotected GABA at 1-day intervals.
FIGS. 44A-44B illustrate accumulation of GABA in ambient room light. FIG. 44A illustrates 1H NMR data used to quantify GABA accumulation. Top, bis-CNB-GABA before light exposure. Arrows denote methylene peaks of bis-CNB-GABA. Peaks at ˜3.45 ppm and ˜3.2 ppm in each spectrum correspond to dimethoxyethane, used as an internal standard. Bottom, The teal overlay indicates the post-photolysis spectrum of bis-CNB-GABA after 17 days of exposure to ambient fluorescent light. Arrows denote the two visible peaks corresponding to a combination of GABA and mono-N-CNB-GABA photoproducts. Note the lack of extraneous peaks in the 0-4 ppm range after light exposure. The dominant final photoproduct of bis-CNB-GABA was GABA, as identified using ^1H NMR. FIG. 44A illustrates 1H NMR data used to quantify GABA accumulation. Referring to this figure (top), bis-CNB-GABA before light exposure. Arrows denote methylene peaks of bis-CNB-GABA. Still referring to FIG. 44A, peaks at ˜3.45 ppm and ˜3.2 ppm in each spectrum correspond to dimethoxyethane, used as an internal standard. Still referring to FIG. 44A (bottom), the teal overlay indicates the post-photolysis spectrum of bis-CNB-GABA after 17 days of exposure to ambient fluorescent light. Arrows denote the two visible peaks corresponding to a combination of GABA and mono-N-CNB-GABA photoproducts. The lack of extraneous peaks in the 0-4 ppm range was observed after light exposure. The combined amount of mono-decaging (N-CNB-GABA) and double-decaging (GABA) photoproduct was quantified using the integrated multiplet at 2.15 ppm, with dimethoxyethane (singlet peaks at 3.20 and 3.45 ppm) as a standard.

[4] = 1994, cited from earlier work

rate of spontaneous photoproduct / GABA production [3]: 1.0±0.2 %/day
extrapolated half-life t1/2 ([3]; buffer, pH 7.4): 138 days
Compound: NCCCC(=O)OC(C(=O)O)c1ccccc1[N+](=O)[O-] (centres unmarked) [mono-CNB-GABA]
effect on rate of spontaneous IPSCs ([1]; 1 mM): dramatic decrease
increase in inward holding current at −60 mV (Ihold) ([2]; 0.1 mM, mean±SD, n=6): 66±47 pA
uncaging speed ([4]; Gee et al.): microsecond range

Compound: O=C(CCCNC(C(=O)O)c1ccccc1[N+](=O)[O-])OC(C(=O)O)c1ccccc1[N+](=O)[O-] (centres unmarked) [bis-CNB-GABA, 2-((4-(Carboxy(2-nitrophenyl)methoxy)-4-oxobutyl)amino)-2-(2-nitrophenyl)acetic acid]
concentration generating 33% reduction in response [1]: 1 mM
effects on holding current, IPSCs, or EPSCs ([1]; 1 mM): minimal or no effects
decrease in miniature GABA response amplitude / reduction of GABA currents ([1]; 1 mM, cerebellar interneuron): ~33%
ratio of GABA current (spontaneous IPSC) amplitudes during drug/control ([1]; 0.4 to 2.0 mM, n=14): 0.68±0.17
Kd ([1]; FIG. 43C, read-out: KD of fit, dependence of spontaneous IPSC amplitude on concentration): 2.5 ± 0.2 mM
IC50 ([1]; Table 1, calculated from q=[j]/[j]+IC50, read-out: IC50): 2 mM
IC33 ([1]; Table 1, calculated, q=0.33): 1.0
IC50 ([1]; Table 2, the data herein, read-out: IC50 in blocking synaptic GABAA currents): ≥ 2.5 mM
10-90% rise time of IPSCs ([1]; during bis-CNB-GABA application, control 0.44±0.13 ms): 0.44±0.11 ms
IC50 ([1]; read-out: estimated IC50 from concentration-dependence of the reduction of spontaneous IPSC amplitude, crude product, stated to be a lower bound): ≥ 2.5 mM
antagonist activity at submillimolar concentrations ([1]; submillimolar concentrations): virtually no antagonist activity
fold less antagonistic binding compared to CDNI-GABA ([1]; vs CDNI-GABA): 4 fold
fold less antagonism compared to DPNI-GABA ([1]; vs DPNI-GABA): 4 fold
fold lower affinity / reduction of antagonism compared to mono-caged analog ([1]; vs mono-CNB-GABA): 70 fold and 100 fold
standard deviation of holding current (steady-state channel noise) ([2]; 0.4 to 2.0 mM, control 3.0±0.5 pA, n=14): 3.2±0.8 pA
ratio of holding current drug/control ([2]; raw product, 0.4 to 2.0 mM, n=14): 1.0±0.3
rate of spontaneous photoproduct / GABA production [3]: 1.5±0.1 %/day
half-life at 12 mM ([3]; buffer, pH 7.4): 98 days
accumulation of GABA ([3]; during a week in the light): less than 1%
estimated production of N-CNB-GABA ([3]; during a week in the light): 10%
dark reaction time ([4]; N-position, Wieboldt et al.): 1.5 ms
